Experimental data as given in BindingDB's records for doi:10.1016/j.ejmech.2023.115410 (Jawaharlal Nehru University, 2023).

Assays:
[1] = Inhibition of avian Influenza A virus SN 33 (H1N1) neuraminidase infected in dog MDCK cells using MU-NANA as substrate assessed as reduction in viral replication incubated for 72 hrs by spectrofluorometric analysis
[2] = Inhibition of […] Influenza A Taiwan 3446 2002(H3N2) neuraminidase infected in dog MDCK cells using MU-NANA as substrate assessed as reduction in viral replication incubated for 72 hrs by spectrofluorometric analysis

SMILES	IC50 [1] [nM]	IC50 [2] [nM]
CC(=O)N[C@H]1[C@H]([C@H](O)[C@H](O)CO)OC(C(=O)O)=C[C@@H]1NC(=N)NC(=O)CSc1ccc2ccccc2c1	20	25
CC(=O)N[C@H]1[C@H]([C@H](O)[C@H](O)CO)OC(C(=O)O)=C[C@@H]1NC(=N)NC(=O)CCc1ccc2ccccc2c1	75	67
